Values of other authors as cited in patent US20020165594A1, “Apparatus and method of photodynamic eradication of organisms utilizing pyrrolnitrin” (Merrill A. Biel, priority 2001, published 2002).

Details: orally and intravenously in high doses

For `CN(C)c1ccc2nc3ccc(=[N+](C)C)cc-3sc2c1` [Methylene blue], the “toxic effects on administration to humans” value is given as “without any toxic effects”.
